Tests used:
[1] = test system: fragments from a sarcoma; experiment: tumor fragment fibrin clot angiogenesis assay, sarcoma; assay type: cell-based, human; details: 1 mM, day 14, control compound
Description: (§1) Fibrin clots were prepared in 96-well plates (Corning Inc., Corning, N.Y.). Each well was preloaded with a human thrombin solution (0.05 IU/mL; in 2.0 μL/well), (Sigma Chemical Company, St Louis, Mo.). A pre-coagulation solution was prepared by dissolving fibrinogen (0.3%; Sigma) and ∈-aminocaproic acid (0.5%; Sigma) in serum-free growth medium consisting of medium 199 (Mediatech, Herndon Va.) supplemented with an antibiotic-antifungal solution (Gibco/Invitrogen, Grand Island, N.Y.; 100 Units/mL of sodium penicillin G, 100 μg/mL of streptomycin sulfate, and 25 μg of amphotericin B) and buffered to a pH of 7.6. Tumor specimens were placed in chilled serum-containing growth media (medium 199 with 20% fetal bovine serum [FBS], Gibco/Invitrogen) and kept under refrigeration until they were processed. The specimens were processed within 24 hours of surgical harvesting. Minced tumor fragments approximately 2 mm in diameter and 1 mm thick were prepared and rapidly embedded within the fibrin clots. Each tumor fragment was placed in the center of a thrombin-treated well. […] Percent initiation (% I) is a ratio calculated from the number of wells that developed an angiogenic response divided by the total number of wells prepared (×100). […] On day 14, fragments were examined microscopically and scored for an angiogenic response (angiogenic index=0-16). […]

[2] = test system: fragments from a neuroendocrine lymph node metastasis; experiment: tumor fragment fibrin clot angiogenesis assay, neuroendocrine lymph node metastasis; assay type: cell-based, human; details: 1 mM, day 14, control compound
Description: as §1

## O=C(O)c1cc(O)c(O)c(O)c1 [Gallic Acid]
[1]
  angiogenic response (angiogenic index 0-16): total inhibition
[2]
  angiogenic response (angiogenic index 0-16): total inhibition

— patent publication US9066959B2, “Ficus extracts having angiogenesis inhibiting activity and methods of isolating and using the same” (BOARD OF SUPERVISORS OF LOUISIANA STATE UNIVERSITY AND …, priority 2008, dated 2015)
